Experimental data reported in patent US4643999A, “2-substituted imidazo[1,2-c]pyrimidines having anxiolytic properties” (priority 1983, dated 1987).

What was measured:
[1] = biological target: benzodiazepine receptor; test: affinity for the benzodiazepine receptor, [3H] flunitrazepam radio receptor binding (Squires and Braestrup, modified); details: inhibition by 50% of specific binding of 0.6 nM [3H] flunitrazepam to rat forebrain membrane preparations
Description: The affinity of the compounds for the benzodiazepine receptor was assessed using the radioligand [^3 H] flunitrazepam and modifications of the original radio receptor binding method of Squires and Braestrup [Nature, Vol. 266 (1977) p. 732]. The values given in Table II are nanomolar concentrations of test drug which inhibited the specific binding of 0.6 nM [^3 H] flunitrazepam to rat forebrain membrane preparations by 50% (IC50 nM).

[2] = Geller conflict, screening for anxiolytic activity (conflict method of Geller et al, modified); type: in vivo; details: po; read-out: GELLER CONFLICT MED (minimum effective dose at which there was an observed increase in shocks above control)
Description: Screening for anxiolytic activity was carried out by modifications of the conflict method of Geller et al [Psychopharmacologia, (1960), Vol. I, p. 482]. The values given in Table II are the minimum effective doses at which there was an observed increase in shocks above control (MED mg/kg po).

Row | SMILES | IC50 [1] [nM] | minimal effective dose [2] [mg/kg]
1 | CCOc1nc(OC)cc2nc(C(=O)c3ccccc3)cn12 [Example 11, (5-ethoxy-7-methoxy-imidazo[1,2-c]pyrimidin-2-yl) phenylmethanone] | 890 | 
2 | COc1cc2nc(C(=O)c3ccccc3)cn2c(OC)n1 [Example 10, (5,7-dimethoxy-imidazo[1,2-c]pyrimidin-2-yl) phenylmethanone] | 1000 | 10
3 | CCc1nc(OC)cc2nc(C(=O)c3ccccc3)cn12 [Example 5, (5-ethyl-7-methoxy-imidazo[1,2-c]pyrimidin-2-yl)phenylmethanone] | 215 | 10
4 | CCCn1c(OC)cc2nc(C(=O)c3ccccc3)cn2c1=O [Example 3, 2-benzoyl-7-methoxy-6-propyl-imidazo[1,2-c]pyrimidin-5-one] | 1000 | 10
5 | C=CCn1c(OC)cc2nc(C(=O)c3ccccc3)cn2c1=O [Example 9, 6-allyl-2-benzoyl-7-methoxy-imidazo[1,2-c]pyrimidin-5-one] | 500 | 5
6 | COc1cc2nc(C(=O)c3ccccc3)cn2c(C)n1 [Example 4, (7-methoxy-5-methyl-imidazo[1,2-c]pyrimidin-2-yl)-phenylmethanone] | 520 | 50
7 | CCn1c(SC)cc2nc(C(=O)c3ccccc3)cn2c1=O [Example 14, 2-benzoyl-6-ethyl-7-methylthio-imidazo[1,2-c]pyrimidin-5-one] | 140 | 5
8 | CCn1c(OC)cc2nc(C(=O)c3ccccc3)cn2c1=O [Example 2, 2-benzoyl-6-ethyl-7-methoxyimidazo[1,2-c]pyrimidin-5-one] | 2000 | 2

These reach a lower IC50 [1]. Values come first.

Row | IC50 [1] [nM] | SMILES | minimal effective dose [2] [mg/kg]
9 | 18 | CSc1cc2nc(C(=O)c3ccccc3)cn2c(SC)n1 [Example 13, {5,7-bis(methylthio)-imidazo[1,2-c]pyrimidin-2-yl}phenylmethanone] | 50
10 | 126 | COc1cc2nc(C(=O)c3ccccc3)cn2c(SC)n1 [Example 12, {7-methoxy-5-methylthio-imidazo[1,2-c]pyrimidin-2-yl}phenylmethanone] | 5
11 | 120 | C=CCn1c(SC)cc2nc(C(=O)c3ccccc3)cn2c1=O [Example 15, 6-allyl-2-benzoyl-7-methylthio-imidazo[1,2-c]pyrimidin-5-one] | 50
